Experimental data from ChEMBL document CHEMBL5291721, “A preclinical secondary pharmacology resource illuminates target-adverse drug reaction associations of marketed drugs” (Nat Commun, 2023).

Tests used:
[1] = molecular target: D(1A) dopamine receptor (Homo sapiens, UniProt P21728)
[2] = molecular target: T1, Retinoic acid receptor gamma (Homo sapiens, UniProt P13631); format: functional, cell-based
T1 sequence (P13631 whole entry): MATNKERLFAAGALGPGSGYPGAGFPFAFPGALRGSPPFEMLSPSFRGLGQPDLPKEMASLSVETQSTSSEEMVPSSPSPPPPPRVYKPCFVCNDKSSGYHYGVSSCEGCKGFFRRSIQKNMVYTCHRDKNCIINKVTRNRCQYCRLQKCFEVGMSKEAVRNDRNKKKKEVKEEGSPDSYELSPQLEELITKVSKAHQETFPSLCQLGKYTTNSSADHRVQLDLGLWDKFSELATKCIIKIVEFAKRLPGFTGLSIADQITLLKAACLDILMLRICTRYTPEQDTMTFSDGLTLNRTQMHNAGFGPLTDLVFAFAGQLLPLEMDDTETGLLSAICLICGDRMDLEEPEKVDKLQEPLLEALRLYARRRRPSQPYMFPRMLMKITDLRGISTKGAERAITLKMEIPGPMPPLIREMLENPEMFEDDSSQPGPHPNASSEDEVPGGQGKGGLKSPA

[3] = molecular target: Beta-1 adrenergic receptor (Homo sapiens, UniProt P08588); format: functional, cell-based
[4] = molecular target: T2, Oxysterols receptor LXR-beta (Homo sapiens, UniProt P55055); format: functional
T2 sequence (P55055 whole entry): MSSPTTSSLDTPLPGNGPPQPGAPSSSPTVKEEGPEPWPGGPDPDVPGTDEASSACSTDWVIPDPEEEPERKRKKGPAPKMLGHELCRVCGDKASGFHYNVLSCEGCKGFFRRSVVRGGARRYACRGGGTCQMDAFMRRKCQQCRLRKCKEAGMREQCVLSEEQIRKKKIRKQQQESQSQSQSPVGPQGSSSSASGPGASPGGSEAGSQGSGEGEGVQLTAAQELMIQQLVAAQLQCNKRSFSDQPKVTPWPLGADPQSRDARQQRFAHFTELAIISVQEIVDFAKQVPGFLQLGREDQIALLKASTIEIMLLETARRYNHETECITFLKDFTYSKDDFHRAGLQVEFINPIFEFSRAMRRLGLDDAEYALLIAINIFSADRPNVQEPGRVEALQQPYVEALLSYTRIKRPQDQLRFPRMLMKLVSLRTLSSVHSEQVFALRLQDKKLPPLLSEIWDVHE

[5] = molecular target: T3, Retinoic acid receptor alpha (Homo sapiens, UniProt P10276); format: functional, cell-based
T3 sequence (P10276 whole entry): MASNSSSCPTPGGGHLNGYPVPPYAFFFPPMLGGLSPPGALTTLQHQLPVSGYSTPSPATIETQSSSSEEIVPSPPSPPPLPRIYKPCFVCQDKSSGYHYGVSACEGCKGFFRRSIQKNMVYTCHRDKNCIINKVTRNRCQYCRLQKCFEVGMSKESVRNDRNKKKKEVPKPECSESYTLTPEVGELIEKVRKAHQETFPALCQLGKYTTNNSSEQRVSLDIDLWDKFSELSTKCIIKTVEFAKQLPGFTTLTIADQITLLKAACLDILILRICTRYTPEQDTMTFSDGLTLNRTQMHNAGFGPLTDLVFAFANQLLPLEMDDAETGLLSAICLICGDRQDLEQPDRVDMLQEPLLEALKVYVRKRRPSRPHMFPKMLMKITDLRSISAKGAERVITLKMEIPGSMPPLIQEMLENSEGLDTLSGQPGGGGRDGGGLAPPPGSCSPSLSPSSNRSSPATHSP

[6] = molecular target: T3, Retinoic acid receptor alpha; format: functional, cell-based; remark: listed apart in the source
[7] = molecular target: T4, Peroxisome proliferator-activated receptor alpha (Homo sapiens, UniProt Q07869); format: functional
T4 sequence (Q07869 whole entry): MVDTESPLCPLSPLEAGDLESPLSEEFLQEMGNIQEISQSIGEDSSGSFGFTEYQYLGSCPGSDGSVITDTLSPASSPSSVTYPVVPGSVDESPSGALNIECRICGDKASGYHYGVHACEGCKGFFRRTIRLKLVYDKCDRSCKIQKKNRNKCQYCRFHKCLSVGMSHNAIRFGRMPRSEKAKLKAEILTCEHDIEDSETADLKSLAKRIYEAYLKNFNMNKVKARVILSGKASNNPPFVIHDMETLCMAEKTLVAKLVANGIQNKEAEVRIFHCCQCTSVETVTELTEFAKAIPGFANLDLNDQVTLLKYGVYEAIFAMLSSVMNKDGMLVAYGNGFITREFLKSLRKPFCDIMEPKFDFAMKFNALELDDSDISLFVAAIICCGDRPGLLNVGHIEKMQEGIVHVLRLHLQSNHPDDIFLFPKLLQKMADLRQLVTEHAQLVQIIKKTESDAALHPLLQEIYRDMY

[8] = molecular target: T5, Bile acid receptor (Homo sapiens, UniProt Q96RI1); format: functional
T5 sequence (Q96RI1 whole entry): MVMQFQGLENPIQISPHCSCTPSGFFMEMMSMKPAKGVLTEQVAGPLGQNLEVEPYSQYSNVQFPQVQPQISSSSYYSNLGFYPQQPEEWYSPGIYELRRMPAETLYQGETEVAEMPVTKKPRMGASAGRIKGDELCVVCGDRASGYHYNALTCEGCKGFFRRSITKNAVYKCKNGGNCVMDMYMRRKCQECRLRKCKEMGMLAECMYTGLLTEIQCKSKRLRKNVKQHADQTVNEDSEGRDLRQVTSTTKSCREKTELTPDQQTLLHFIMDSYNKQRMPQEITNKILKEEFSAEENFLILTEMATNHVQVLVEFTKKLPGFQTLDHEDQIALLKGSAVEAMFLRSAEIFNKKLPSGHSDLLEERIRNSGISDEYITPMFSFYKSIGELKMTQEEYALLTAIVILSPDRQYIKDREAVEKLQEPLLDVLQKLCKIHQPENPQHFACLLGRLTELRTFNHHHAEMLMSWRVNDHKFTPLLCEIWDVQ

[9] = molecular target: Hydroxycarboxylic acid receptor 2 (Homo sapiens, UniProt Q8TDS4)
[10] = molecular target: 5-hydroxytryptamine receptor 2B (Homo sapiens, UniProt P41595)
Note: assay procedure not described here.

Beta-1 adrenergic receptor, sequence (P08588 whole entry): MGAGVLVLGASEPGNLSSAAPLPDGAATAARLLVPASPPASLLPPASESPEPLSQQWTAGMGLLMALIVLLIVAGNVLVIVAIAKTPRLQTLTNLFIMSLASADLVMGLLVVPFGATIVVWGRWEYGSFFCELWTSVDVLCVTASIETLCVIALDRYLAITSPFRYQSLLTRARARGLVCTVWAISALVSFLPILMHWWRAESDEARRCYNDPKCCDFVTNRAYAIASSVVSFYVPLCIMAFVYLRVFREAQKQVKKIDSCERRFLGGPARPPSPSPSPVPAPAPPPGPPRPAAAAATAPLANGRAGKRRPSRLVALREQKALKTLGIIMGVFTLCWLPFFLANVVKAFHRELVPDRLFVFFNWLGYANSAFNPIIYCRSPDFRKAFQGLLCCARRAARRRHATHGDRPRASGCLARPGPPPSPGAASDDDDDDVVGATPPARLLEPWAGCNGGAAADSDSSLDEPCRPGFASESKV
5-hydroxytryptamine receptor 2B, sequence (P41595 whole entry): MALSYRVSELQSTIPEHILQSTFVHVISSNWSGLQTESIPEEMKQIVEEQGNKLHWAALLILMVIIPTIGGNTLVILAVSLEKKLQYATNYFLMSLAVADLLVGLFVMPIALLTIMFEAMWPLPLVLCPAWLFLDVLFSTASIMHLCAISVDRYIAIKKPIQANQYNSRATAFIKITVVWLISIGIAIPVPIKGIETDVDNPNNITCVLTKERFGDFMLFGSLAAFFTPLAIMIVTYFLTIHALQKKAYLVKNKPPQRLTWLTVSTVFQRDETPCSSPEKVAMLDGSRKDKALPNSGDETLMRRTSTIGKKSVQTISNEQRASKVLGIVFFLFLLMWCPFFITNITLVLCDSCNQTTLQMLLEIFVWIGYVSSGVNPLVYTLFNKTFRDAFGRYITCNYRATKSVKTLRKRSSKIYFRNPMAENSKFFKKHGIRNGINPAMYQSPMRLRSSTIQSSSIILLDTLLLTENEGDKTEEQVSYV
Hydroxycarboxylic acid receptor 2, sequence (Q8TDS4 whole entry): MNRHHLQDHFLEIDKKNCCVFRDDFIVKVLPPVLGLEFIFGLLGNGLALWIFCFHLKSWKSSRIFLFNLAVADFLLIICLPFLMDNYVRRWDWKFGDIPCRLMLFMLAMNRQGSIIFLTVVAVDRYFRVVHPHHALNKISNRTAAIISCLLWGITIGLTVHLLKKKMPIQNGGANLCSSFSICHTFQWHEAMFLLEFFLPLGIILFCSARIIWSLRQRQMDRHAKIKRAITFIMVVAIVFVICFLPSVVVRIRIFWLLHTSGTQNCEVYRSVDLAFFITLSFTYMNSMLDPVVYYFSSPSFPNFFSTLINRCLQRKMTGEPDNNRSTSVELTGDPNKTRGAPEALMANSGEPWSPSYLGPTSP
D(1A) dopamine receptor, sequence (P21728 whole entry): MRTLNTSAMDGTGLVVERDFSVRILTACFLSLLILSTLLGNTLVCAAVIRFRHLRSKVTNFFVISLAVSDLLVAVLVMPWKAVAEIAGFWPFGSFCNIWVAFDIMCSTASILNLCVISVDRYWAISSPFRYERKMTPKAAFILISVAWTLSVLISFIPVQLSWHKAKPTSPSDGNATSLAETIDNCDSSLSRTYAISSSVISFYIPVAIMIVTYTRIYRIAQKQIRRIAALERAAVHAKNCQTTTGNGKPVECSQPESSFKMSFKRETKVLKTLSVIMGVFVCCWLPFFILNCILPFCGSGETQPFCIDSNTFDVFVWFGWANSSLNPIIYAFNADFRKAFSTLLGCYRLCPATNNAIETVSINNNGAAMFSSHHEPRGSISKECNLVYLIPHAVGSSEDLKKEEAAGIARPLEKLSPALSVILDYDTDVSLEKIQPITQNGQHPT

O=C(Nc1cccc2c(=O)cc(-c3nnn[nH]3)oc12)c1ccc(OCCCCc2ccccc2)cc1
AC50 [1]: 2.88 µM

CC(/C=C1\SC(=S)N(CC(=O)O)C1=O)=C\c1ccccc1
AC50 [2]: > 30 µM
AC50 [3]: > 30 µM
AC50 [4]: > 30 µM
AC50 [5]: > 30 µM
AC50 [6]: > 30 µM
AC50 [7]: > 30 µM
AC50 [8]: > 30 µM

CC1(C)S[C@@H]2[C@H](NC(=O)[C@H](N)c3ccc(O)cc3)C(=O)N2[C@H]1C(=O)O [AMOXICILLIN]
AC50 [2]: 9.1 µM
AC50 [4]: 4.1 µM
AC50 [5]: > 30 µM
AC50 [6]: > 30 µM
AC50 [7]: > 30 µM
AC50 [8]: > 30 µM

Clc1cccc(Cl)c1N=C1NCCN1 [CLONIDINE]
AC50 [9]: > 10 µM

CN1C[C@H](C(=O)N[C@]2(C)O[C@@]3(O)[C@@H]4CCCN4C(=O)[C@H](Cc4ccccc4)N3C2=O)C[C@@H]2c3cccc4[nH]cc(c34)C[C@H]21 [DIHYDROERGOTAMINE]
AC50 [10]: 0.0444 µM

CCC(=O)O[C@@H](O[P@](=O)(CCCCc1ccccc1)CC(=O)N1C[C@H](C2CCCCC2)C[C@H]1C(=O)O)C(C)C [FOSINOPRIL]
AC50 [1]: 21.6 µM

Nc1nc(O)c2ncn(COC(CO)CO)c2n1 [GANCICLOVIR]
AC50 [3]: > 30 µM

CC[C@@H](CO)NC(=O)[C@@H]1C=C2c3cccc4[nH]cc(c34)C[C@H]2N(C)C1 [METHYLERGONOVINE]
AC50 [10]: 0.0054 µM

CN(C)c1cc(CNCC(C)(C)C)c(O)c2c1C[C@H]1C[C@H]3[C@H](N(C)C)C(O)=C(C(N)=O)C(=O)[C@@]3(O)C(O)=C1C2=O [OMADACYCLINE]
AC50 [1]: > 30 µM

COc1ccnc(C[S+]([O-])c2nc3ccc(OC(F)F)cc3[nH]2)c1OC (centres undefined) [PANTOPRAZOLE]
AC50 [9]: > 10 µM

CNC(=O)c1cc(Oc2ccc(NC(=O)Nc3ccc(Cl)c(C(F)(F)F)c3)c(F)c2)ccn1 [REGORAFENIB]
AC50 [2]: 9 µM
AC50 [4]: > 30 µM
AC50 [1]: 4.15 µM
AC50 [5]: > 30 µM
AC50 [6]: > 30 µM
AC50 [7]: > 30 µM
AC50 [8]: > 30 µM

CCOc1cc(CC(=O)N[C@@H](CC(C)C)c2ccccc2N2CCCCC2)ccc1C(=O)O [REPAGLINIDE]
AC50 [2]: > 30 µM
AC50 [4]: > 30 µM
AC50 [5]: > 30 µM
AC50 [6]: > 30 µM
AC50 [7]: > 30 µM
AC50 [8]: > 30 µM

CCCN(CCC)CCc1cccc2c1CC(=O)N2 [ROPINIROLE]
AC50 [10]: 13.4 µM

CC(C)N(CCCCOCC(=O)NS(C)(=O)=O)c1cnc(-c2ccccc2)c(-c2ccccc2)n1 [SELEXIPAG]
AC50 [3]: > 30 µM

CC(=O)S[C@@H]1CC2=CC(=O)CC[C@]2(C)[C@H]2CC[C@@]3(C)[C@@H](CC[C@@]34CCC(=O)O4)[C@H]12 [SPIRONOLACTONE]
AC50 [9]: > 10 µM

CN1CCN(CCCN2c3ccccc3Sc3ccc(S(=O)(=O)N(C)C)cc32)CC1 [THIOPROPERAZINE]
AC50 [1]: > 30 µM

Cc1cc(CC(=O)O)n(C)c1C(=O)c1ccc(Cl)cc1 [ZOMEPIRAC]
AC50 [3]: > 30 µM
